Laboratory results as given in patent publication US9453044.
Read-outs that look alike come from different tables or passages of the source.

Conditions: amide bond, salicylaldehyde ester ligation, TFA, 2 steps

CC(C)C[C@@H]1NC(=O)[C@H](Cc2ccccc2)NC(=O)[C@H](CO)NC(=O)[C@H](C)NC(=O)[C@H](Cc2ccccc2)NC1=O [SFLFA]
ring closure, yield after HPLC (from H-Ser-Phe-Leu-Phe-Ala-OPhCHO?, 15-membered ring): 35%

CC(C)C[C@@H]1NC(=O)[C@H](Cc2ccccc2)NC(=O)[C@H](C)NC(=O)[C@H](CCCCN)NC(=O)CNC(=O)[C@H](CO)NC1=O [SGKAFL]
ring closure, yield after HPLC (from H-Ser-Gly-Lys-Ala-Phe-Leu-OPhCHO?, 18-membered ring): 39%

CC(C)C[C@@H]1NC(=O)CNC(=O)[C@H](CO)NC(=O)CNC(=O)[C@H](C)NC(=O)[C@H](Cc2ccccc2)NC(=O)CNC(=O)[C@H](Cc2ccccc2)NC1=O [SGLFGFAG]
ring closure, yield after HPLC (from H-Ser-Gly-Leu-Phe-Gly-Phe-Ala-Gly-OPhCHO?, 24-membered ring): 65%

CC(C)C[C@@H]1NC(=O)CNC(=O)[C@H](CO)NC(=O)CNC(=O)[C@H](C)NC(=O)[C@H](Cc2ccccc2)NC(=O)CNC(=O)[C@H](Cc2ccc(O)cc2)NC1=O [SGLYGFAG]
ring closure, yield after HPLC (from H-Ser-Gly-Leu-Tyr-Gly-Phe-Ala-Gly-OPhCHO?, 24-membered ring): 52%

CC(C)C[C@@H]1NC(=O)[C@H](CO)NC(=O)[C@H](CC(C)C)NC(=O)[C@H](CO)NC1=O [SLSL]
ring closure, yield after HPLC (from H-Ser-Leu-Ser-Leu-OPhCHO?, 12-membered ring): 20%

C[C@@H](O)[C@@H]1NC(=O)CNC(=O)[C@H](Cc2ccccc2)NC(=O)[C@H](Cc2ccccc2)NC(=O)CNC(=O)[C@H](Cc2ccccc2)NC(=O)[C@H](Cc2ccccc2)NC1=O [TFFGFFG]
ring closure, yield after HPLC (from H-Thr-Phe-Phe-Gly-Phe-Phe-Gly-OPhCHO?, 21-membered ring): 56%

CC(C)C[C@@H]1NC(=O)CNC(=O)[C@H]([C@@H](C)O)NC(=O)CNC(=O)[C@H](C)NC(=O)[C@H](Cc2ccccc2)NC(=O)CNC(=O)[C@H](Cc2ccccc2)NC1=O [TGLFGFAG]
ring closure, yield after HPLC (from H-Thr-Gly-Leu-Phe-Gly-Phe-Ala-Gly-OPhCHO?, 24-membered ring): 63%
